Data published in patent US12053467B2, “Method of treating fibrosis” (NovMeta Pharma Co., Ltd., priority 2020, dated 2024).

Key:
[1] = system: zinc absorption and uptake by muscle tissues and by intestinal segments; settings: Life Sciences 70 (2001), 337-348; cited from earlier work
fibronectin [2] = assay: Fibronectin mRNA (real-time PCR) in bleomycin-induced pulmonary fibrosis mice; type: in vivo, ICR mice; settings: lung; 5, 25, 50 and 100 mg/kg/day oral, daily for 4 weeks; vs BLM alone (set 1.0)
Experimental: (§1) Seven-week-old male ICR mice from Koatech Co. Ltd (Gyeonggi-do, Korea). All animal experiments were approved by the Ethics Review Committee of the Advanced Bio Convergence Center, Republic of Korea. Mice were housed in specific pathogen-free conditions with a 12 hr light-dark cycle and had free access to water and food. Body weight and caloric intake were monitored throughout the experiments. The mice were housed in single cage and food intake was calculated of each animals in the cage. 5 or 25 or 50 or 100 mg/kg/day CHP monohydrate, 5 mg/kg/day CHP+10 mg/kg/day Zn, or PBS (vehicle control), was orally administered daily for 4 weeks. At the conclusion of the in vivo experiment, the mice were sacrificed and tissues were collected and weighed. Tissue samples were stored at −80° C. until analysis.
(§2) Mice maintained under anesthesia with isoflurane were intravenously administered bleomycin 75 mg/kg in saline. […]
(§3) Total RNA was prepared by an RNeasy Mini kit (QIAGEN) according to the manufacturer's instructions. RNA integrity was assessed by an automated microfluidics-based system (Bioanalyzer 2100, Agilent, Palo Alto, CA, USA). […] A melt curve was produced to confirm a single gene-specific peak and detect primer/dimer formation by heating the samples from 65 to 95° C. in 0.5° C. increments with a dwell time at each temperature of 10 sec while continuously monitoring fluorescence. […]

[3] = system: transforming growth factor-β (TGF-β); assay: TGF-β mRNA (real-time PCR) in bleomycin-induced pulmonary fibrosis mice; type: in vivo, ICR mice; settings: lung; 5, 25, 50 and 100 mg/kg/day oral, daily for 4 weeks; vs BLM alone (set 1.0)
Experimental: as §1, §2, §3

Collagen 1 (Col1) = assay: Col1 mRNA (real-time PCR) in bleomycin-induced pulmonary fibrosis mice; type: in vivo, ICR mice; settings: lung, 5, 25, 50 and 100 mg/kg/day oral, daily for 4 weeks, vs BLM alone (set 1.0)
Experimental: as §1, §2, §3

Collagen 3 (Col3) = assay: Col3 mRNA (real-time PCR) in bleomycin-induced pulmonary fibrosis mice; type: in vivo, ICR mice; settings: lung, 5, 25, 50 and 100 mg/kg/day oral, daily for 4 weeks, vs BLM alone (set 1.0)
Experimental: as §1, §2, §3

fibronectin [4] = assay: Western blot of fibronectin in bleomycin-induced pulmonary fibrosis mice; type: in vivo, ICR mice; settings: CHP 5 mg/kg oral, daily for 4 weeks; compared to BLM group
Experimental: as §1
(§4) Mice maintained under anesthesia with isoflurane were intravenously administered bleomycin 75 mg/kg in saline. The first administration of CHP hydrate or CHP hydrate+Zn was performed 30 min after bleomycin administration.
20-30 μg of lysates were separated on BOLT™ 4-12% Bis-Tris Plus gels with MES running buffer and transferred to nitrocellulose membranes using TRANS-BLOT® TURBO™ Transfer System (Bio-Rad). […]

[5] = system: α-smooth muscle actin (aSMA); assay: αSMA mRNA (real-time PCR) in bleomycin-induced pulmonary fibrosis mice; type: in vivo, ICR mice; settings: lung, 5, 25, 50 and 100 mg/kg/day oral, daily for 4 weeks, vs BLM alone (set 1.0)
Experimental: as §1, §2, §3

Collagen 4 (Col4) = assay: Col4 mRNA (real-time PCR) in bleomycin-induced pulmonary fibrosis mice; type: in vivo, ICR mice; settings: lung, 5, 25, 50 and 100 mg/kg/day oral, daily for 4 weeks, vs BLM alone (set 1.0)
Experimental: as §1, §2, §3

[6] = system: lung hydroxyproline (collagen deposition); assay: Hydroxyproline assay of lung in bleomycin-induced IPF mice; type: in vivo, ICR mice; settings: 5, 25, 50 and 100 mg/kg/day oral, daily for 4 weeks, vs BLM alone
Experimental: as §1, §4
Collagen deposition was determined by measuring the total hydroxyproline (HYP) content, which was measured by a HYP assay kit according to the provided manufacturer's protocol. […] After neutralization with hydrochloric acid, the hydrolyzation products were diluted with distilled water, and assessed at 550 nm and expressed as ug/10 mg.

[7] = system: bleomycin (BLM)-induced pulmonary fibrosis; assay: Bleomycin-induced pulmonary fibrosis mouse model, overall effect; type: in vivo, ICR mice; settings: 5, 25, 50 and 100 mg/kg/day oral, 4 weeks; compared to BLM alone group; FIGS. 1-7
Experimental: as §1, with “analysis. Mice maintained under anesthesia with isoflurane were intravenously administered bleomycin 75 mg/kg in saline. The first administration of CHP hydrate or CHP hydrate+Zn was performed 30 min after bleomycin administration.” for “analysis.”

[8] = pKa of CHP hydrate material; type: physicochemical; settings: characterising feature (b)

Question: With `O=C1N[C@@H](Cc2cnc[nH]2)C(=O)N2CCC[C@@H]12` [CHP, Cyclo(-His-Pro)] as the molecule, how does the “zinc absorption and uptake” value [1] read?
Answer: enhanced

Question: What about the “relative fibronectin mRNA expression level” value (fibronectin [2]) of the same molecule?
Answer: significantly reduces

Question: What about the “relative TGF-β mRNA expression level” value [3] of the same molecule?
Answer: significantly reduces

Question: And the “relative Col1 mRNA expression level” value (Collagen 1 (Col1))?
Answer: significantly reduces

Question: And the “relative Col3 mRNA expression level” value (Collagen 3 (Col3))?
Answer: significantly reduces

Question: And the “fibronectin protein levels (Western blotting)” value (fibronectin [4])?
Answer: dramatically reduced

Question: And the “relative αSMA mRNA expression level” value [5]?
Answer: significantly reduces

Question: What about the “relative Col4 mRNA expression level” value (Collagen 4 (Col4)) of the same molecule?
Answer: significantly reduces

Question: And the “lung hydroxyproline (HYP) content / accumulation of collagen in the lung” value [6]?
Answer: significantly reduces

Question: With `O=C1N[C@@H](Cc2cnc[nH]2)C(=O)N2CCC[C@@H]12` [CHP hydrate, cyclo(-His-Pro) hydrate] as the molecule, how does the “relative Col1 mRNA expression level” value (Collagen 1 (Col1); hydrate) read?
Answer: dramatically reduced

Question: And the “relative Col3 mRNA expression level” value (Collagen 3 (Col3); hydrate)?
Answer: dramatically reduced

Question: And the “inflammation and fibrosis biomarkers” value [7]?
Answer: significantly decreased

Question: What about the “relative αSMA mRNA expression level” value ([5]; hydrate) of the same molecule?
Answer: dramatically reduced

Question: What about the “relative Col4 mRNA expression level” value (Collagen 4 (Col4); hydrate) of the same molecule?
Answer: dramatically reduced

Question: And the pKa [8]?
Answer: ~6.4

Question: What about the “lung hydroxyproline (HYP) content / accumulation of collagen in the lung” value ([6]; hydrate) of the same molecule?
Answer: significantly decreased
